Assay results taken from patent US4631292A, “1,3-dioxane derivatives, method of their synthesis and anti-peptic ulcer agent” (Kotobuki Seiyaku Co., Ltd., priority 1983, dated 1986).

Key:
[1] = system: aspirin-induced pylorus-ligated rats; assay: Aspirin-induced ulcer in pylorus-ligated rats (method of S. Okabe); assay type: in vivo; conditions: oral dose 500 mg/kg
Protocol: (1) The effect of the compounds of the invention is examined by using aspirin-induced pylorus-ligated rats according to the methods of S. Okabe (Oyo-Yakuri 9 (1), 31-37 1975). The test compounds are given orally at a dose of 500 mg./kg.

ethanol induced ulcer = assay: Ethanol induced ulcer (method of L. Robert, modified); assay type: in vivo; conditions: ethanol/HCl induced ulcer, rats; for ulcer index (mm): 30 min before ethanol, 1 hour after ethanol
Protocol: (2) The effect on ethanol induced ulcer is examined according to the method of L. Robert (Gastroenterology 77,433-443, 1979) with some modification. Rats are fasted for 24 hrs. and after 30 min. of the oral test drug administration, 1 ml. of 60% ethanol of 150 mM hydrochloric acid solution is given.
Exactly 1 hour later, the animals are sacrificed and the stomach is removed to examine their ulcer index.

Row | Structure (SMILES) | % inhibition [1] [%] | ulcer index (mm) ± S.E. [1] [mm] | % inhibition (ethanol induced ulcer; oral dose 100 mg/kg) [%] | ulcer index (mm) (ethanol induced ulcer; oral dose 100 mg/kg) | % inhibition (ethanol induced ulcer; oral dose 500 mg/kg) [%] | ulcer index (mm) (ethanol induced ulcer; oral dose 500 mg/kg)
1 | CC(C)=CCCC(C)CC1OCCC(C)O1 (centres unmarked) [Compound 2, 2-(2,6-dimethyl-5-heptene)-6-methyl-1,3-dioxane] | 35.9 | 27.8 ± 7.1 | – | – | – | –
2 | CC(C)=CCCC1(C)OC(C)CC(C)O1 (centres unmarked) [Compound 11, 2-(4-methyl-3-pentenyl)-2-methyl-4,6-dimethyl-1,3-dioxane] | 33.7 | 14.5 ± 5.12 | – | – | – | –
3 | CC(C)=CCCC1OCCC(C)O1 (centres unmarked) [Compound 1, 2-(4-methyl-3-pentene)-6-methyl-1,3-dioxane] | 50.6 | 11.0 ± 2.98 | – | – | – | –
4 | CC1CCC(C(C)C)C2(C1)OCCC(C)O2 (centres unmarked) [Compound 6, spiro[2isopropyl-5-methyl-cyclohexane-1,2'-4'-methyl 1',3']dioxane] | 53.9 | 10.3 ± 4.16 | – | – | – | –
5 | CC(C)=CCCC1(C)OCCC(C)O1 (centres unmarked) [Compound 5, 2-(4-methyl-3-pentenyl)-2-methyl-4-methyl-1,3-dioxane] | 88.1 | 2.2 ± 0.8 | 59.7 | 27.1 ± 7.3 | 95.1 | 3.3 ± 1.2
